In patent publication US20240252474A1, “METHODS AND COMPOSITIONS COMPRISING A CARDIO-TOLERATED HDAC INHIBITOR” (HUYABIO International, LLC, priority 2023, published 2024):
“And” between values parts separate entries of the source, which are not always exact repeats. Equal values may be shown once. Read-outs that look alike come from different tables or passages of the source.

How the values were obtained:
[1] = Non-compartmental PK analysis of HBI-8000 plasma concentrations; type: in vivo, human; conditions: for AUC0-7/D / AUC0-24/D / Cmax/D / CPre/D: dose-normalized; for AUC from 0 to 7 h post-dose: read-out: AUC0-7; for AUC(0-t): read-out: AUC0-24
From the text: Statistical analyses of safety, tolerability, and anti-tumor activity were primarily descriptive in nature. Toxicities were tabulated by type and grade. The safety population included all patients who received ≥1 dose of HBI-8000 and nivolumab. Continuous variables were summarized using descriptive statistics and categorical variables were summarized with number and percentage at each category. Pharmacokinetic parameters were derived using noncompartmental methods with Phoenix® WinNonlin® Version 6.4 (Certara, L. P., Princeton, NJ, USA).
(§1) Non-compartmental PK analysis for HBI-8000 was conducted in Phase 1b using serial plasma concentration data collected up to 24 hours post-dose for the first (Cycle 1 Day 1; C1D1) dose and up to 7 hours post-dose for the ninth (C2D1) dose of HBI-8000. In conjunction with PK, Holter monitors were used to record 12-lead continuous digital ECGs (under controlled conditions to minimize digital noise) on a baseline day (within 1-7 days prior to C1D1) and on C1D1 (Phase 1b only). Triplicate 10-second ECGs were extracted from the Holter flashcard at matched time-points on the baseline day and on C1D1 up to 4 hours post-dose and the PR, QRS, RR, and QT intervals were analyzed by a Central ECG Laboratory. Meal-times (breakfast) were standardized across both days and occurred after or ≥1 hour before the scheduled extraction times for triplicate ECGs. The measured QT data were corrected for heart rate using Fridericia (QTcF).

[2] = test system: electrocardiogram (ECG) QT interval; assay: 12-lead Holter ECG (QTcF, heart rate) and concentration-QT modeling; type: in vivo; conditions: for median ΔQTcF across time points: C1D1, up to 4 hours post dose
Method: In conjunction with the pharmacokinetic analysis, Holter monitors were used to record 12-lead continuous digital ECGs (under controlled conditions to minimize digital noise) on a baseline day (within 1-7 days prior to C1D1) and on C1D1 (Phase 1b only). Triplicate 10-second ECGs were extracted from the Holter flashcard at matched time-points on the baseline day and on C1D1 at pre-dose (0.5 hr prior to breakfast), and up to 4 hours post-dose. The PR, QRS, RR, and QT intervals were analyzed by a central ECG laboratory. Mealtimes (breakfast) were standardized across both days. The measured QT data were corrected for heart rate using the Fridericia correction (QTcF). • QTcF was calculated using the formula: Fridericia: QTcFri=QT/(RR)^1/3 (Fridericia L S. Die systolendauer im elektrokardiogramm bei normalenmenschen und bei herzkranken. Acta Med Scand. 1920; 53:469-486).
as §1

[3] = test system: advanced solid tumors, including melanoma, RCC (renal cell carcinoma), and NSCLC (non-small cell lung cancer); assay: Tumor response by RECIST v.1.1; type: in vivo, human
From the text: The decision to escalate the dose was based on the conventional 3+3 design and observed incidences of dose-limiting toxicities (DLTs). Each treatment cycle was defined as 28 days. To be evaluable for DLT, a subject must have developed DLT, or received the minimum 75% of the planned HBI-8000 dose within the 28-day DLT evaluation period in the absence of treatment delays due to toxicities. Subjects experiencing DLT within the first two weeks after having received 100% of assigned dose of HBI-8000 are also evaluable for DLT. Unacceptable toxicities were defined as grade 3 or higher non-hematologic and hematologic toxicities with clinical complications. Unacceptable toxicities observed over the first 28 days following HBI-8000 administration were considered as DLTs. The RP2D was identified as the highest dose at which the DLT incidence was less than 33.3%. HBI-8000 administration continued until disease progression or unacceptable toxicity was observed. The efficacy of the combination was further evaluated in an expanded cohort of selected patient populations at RP2D based on an objective response rate according to Response Evaluation Criteria in Solid Tumors (RECIST) version 1.1 criteria, progression-free survival, and duration of responses.
Tumor assessments were performed every 8 weeks until treatment discontinuation, then every 12 (±1) weeks in subjects in whom disease progression has not yet been observed, and followed the guidelines specified by RECIST v.1.1 and immune-related Response Evaluation Criteria In Solid Tumors (iRECIST).

[4] = 20 mg, n = 2, individual values
[5] = C1D1, 20 mg, n = 3, geometric mean
[6] = C1D1, 30 mg, n = 7, geometric mean
[7] = C1D1, 40 mg, n = 7, geometric mean
[8] = C2D1, 20 mg, n = 2, individual values
[9] = C2D1, 30 mg, n = 3, geometric mean
[10] = C2D1, 40 mg, n = 4, geometric mean
[11] = human, plasma, oral, 20 mg, C1D1, 20 mg, n = 3, geometric mean
[12] = human, plasma, oral, 30 mg, C1D1, 30 mg, n = 7, geometric mean
[13] = HBI-8000 + nivolumab, 3 NSCLC patients
[14] = HBI-8000 + nivolumab, 5 melanoma patients
[15] = HBI-8000 + nivolumab, 7 RCC patients

In the case of `Nc1cc(F)ccc1NC(=O)c1ccc(CNC(=O)/C=C/c2cccnc2)cc1` [HBI-8000, N-(2-amino-4-fluorophenyl)-4-[[[(2E)-1-oxo-3-(3-pyridinyl)-2-propen-1-yl]amino]methyl]benzamide], the “median plasma concentration at 4 hours, lower than Cmax by” value ([1]; 20 mg dose) is reported as 17%, the “AUC0-7 Ratio (C2D1/C1D1)” value [1, 4] is reported as 0.69 and 1.99 and the “Cmax Ratio (C2D1/C1D1)” value [1, 4] is reported as 1.06 and 1.80. The “median plasma concentration at 4 hours, lower than Cmax by” value ([1]; 30 mg dose) was 19%, the “AUC0-7 Ratio (C2D1/C1D1)” value ([1]; 30 mg, n = 3, geometric mean) was 1.37 and the “Cmax Ratio (C2D1/C1D1)” value ([1]; 30 mg, n = 3, geometric mean) was 1.08. The “AUC0-7 Ratio (C2D1/C1D1)” value ([1]; 40 mg, n = 3, geometric mean) was 1.36, the “Cmax Ratio (C2D1/C1D1)” value ([1]; 40 mg, n = 4, geometric mean) was 1.18 and the “median plasma concentration at 4 hours, lower than Cmax by” value ([1]; 40-mg dose) was 15%. The “Accumulation, first versus ninth dose” value ([1]; BIW dosing, C1D1 vs C2D1) was “No significant accumulation”, the Cmax ([1]; C1D1, 20 mg oral, n = 3, geometric mean) was 104.9 ng/mL and the AUC0-7/D [1, 5] was 19.2 ng·h/mL/mg. The AUC0-24/D [1, 5] was 79.5 ng·h/mL/mg, the Cmax/D [1, 5] was 5.24 ng/mL/mg and the Cmax ([1]; C1D1, 30 mg oral, n = 7, geometric mean) was 117.6 ng/mL. The AUC0-7/D [1, 6] was 11.4 ng·h/mL/mg, the AUC0-24/D [1, 6] was 57.8 ng·h/mL/mg and the Cmax/D [1, 6] was 3.92 ng/mL/mg. The Cmax ([1]; C1D1, 40 mg oral, n = 7, geometric mean) was 259.3 ng/mL, the AUC0-7/D ([1]; C1D1, 40 mg, n = 6, geometric mean) was 24.3 ng·h/mL/mg and the AUC0-24/D [1, 7] was 92.2 ng·h/mL/mg. For the same compound, the Cmax/D [1, 7] was 6.49 ng/mL/mg, the Cmax ([1]; C2D1, 20 mg BIW, n = 2, individual values) was 83.1 ng/mL and 182 ng/mL and the AUC0-7 [1, 8] was 250 ng·h/mL and 728 ng·h/mL. For the same compound, the “CPre (pre-dose trough concentration)” value [1, 8] was 4.76 ng/mL and 4.79 ng/mL, the Tmax [1, 8] was 3.0 h and the AUC0-7/D [1, 8] was 12.5 ng·h/mL/mg and 36.4 ng·h/mL/mg. For the same compound, the CPre/D [1, 8] was 0.238 ng/mL/mg and 0.240 ng/mL/mg, the Cmax/D [1, 8] was 4.16 ng/mL/mg and 9.10 ng/mL/mg and the “CPre (pre-dose trough concentration)” value [1, 9] was 16.1 ng/mL. For the same compound, the AUC0-7/D [1, 9] was 13.1 ng·h/mL/mg, the CPre/D [1, 9] was 0.536 ng/mL/mg and the Cmax/D [1, 9] was 3.76 ng/mL/mg. The “CPre (pre-dose trough concentration)” value [1, 10] was 14.2 ng/mL, the AUC0-7/D [1, 10] was 23.2 ng·h/mL/mg and the CPre/D [1, 10] was 0.356 ng/mL/mg. For the same compound, the Cmax/D [1, 10] was 5.73 ng/mL/mg, the AUC from 0 to 7 h post-dose [1, 11] was 384 ng·h/mL and the AUC(0-t) [1, 11] was 1590 ng·h/mL. It also gave a Tmax ([1]; human, plasma, oral, 20 mg, C1D1, 20 mg, n = 3, median, read-out: tmax) of 6.6 h, an AUC from 0 to 7 h post-dose [1, 12] of 342 ng·h/mL and an AUC(0-t) [1, 12] of 1730 ng·h/mL. It also gave a Tmax ([1]; human, plasma, oral, 30 mg, C1D1, 30 mg, n = 7, median, read-out: tmax) of 6.5 h, a Cmax ([1]; human, plasma, oral, 30 mg, C2D1, 30 mg BIW, n = 3, geometric mean, read-out: Cmax) of 113 ng/mL and an AUC from 0 to 7 h post-dose ([1]; human, plasma, oral, 30 mg, C2D1, 30 mg, n = 3, geometric mean) of 392 ng·h/mL. For the same compound, the Tmax ([1]; human, plasma, oral, 30 mg, C2D1, 30 mg, n = 3, median, read-out: tmax) was 6.7 h, the AUC from 0 to 7 h post-dose ([1]; human, plasma, oral, 40 mg, C1D1, 40 mg, n = 6, geometric mean) was 973 ng·h/mL and the AUC(0-t) ([1]; human, plasma, oral, 40 mg, C1D1, 40 mg, n = 7, geometric mean) was 3690 ng·h/mL. It also gave a Tmax ([1]; human, plasma, oral, 40 mg, C1D1, 40 mg, n = 7, median, read-out: tmax) of 4.8 h, a Cmax ([1]; human, plasma, oral, 40 mg, C2D1, 40 mg BIW, n = 4, geometric mean, read-out: Cmax) of 229 ng/mL and an AUC from 0 to 7 h post-dose ([1]; human, plasma, oral, 40 mg, C2D1, 40 mg, n = 4, geometric mean) of 929 ng·h/mL. The Tmax ([1]; human, plasma, oral, 40 mg, C2D1, 40 mg, n = 4, median, read-out: tmax) was 6.8 h, the Tmax ([1]; human, plasma, oral, 40 mg, range across 20, 30 and 40 mg BIW dose cohorts, post dose, read-out: median time to peak plasma concentration (tmax)) was 5 to 7 h and the Cmax ([1]; human, plasma, po, 20 mg, C1D1, 20 mg oral, n = 3, geometric mean, read-out: Cmax) was 105 ng/mL. The Cmax ([1]; human, plasma, po, 30 mg, C1D1, 30 mg oral, n = 7, geometric mean, read-out: Cmax) was 118 ng/mL, the Cmax ([1]; human, plasma, po, 40 mg, C1D1, 40 mg oral, n = 7, geometric mean, read-out: Cmax) was 259 ng/mL and the “median ΔQTcF across time points” value ([2]; 30 mg dose) was 0 to −1.5 ms. For the same compound, the “highest median decrease in QTcF” value ([2]; 40 mg dose, 4 hours post dose) was -11.5 ms, the “median ΔQTcF across time points” value ([2]; 40 mg dose) was −3.0 to −11.5 ms and the “mean upper 90% confidence limits of model-predicted ΔQTcF” value ([2]; 20, 30 and 40 mg doses, threshold 10 ms) was −1.1 to −2.8 ms. The QTcF values ([2]; all patients, 20-40 mg) was no more than 450 ms, the ΔQTcF values ([2]; all patients, 20-40 mg) was no more than 30 ms and the “Effect on QTcF (conclusion)” value ([2]; at the doses and regimen administered) was “did not prolong QTcF”. The “change from baseline ventricular heart rate” value ([2]; single dose 20, 30 or 40 mg on C1D1, 0 to 4 hour) was “remained essentially stable”, the “NSCLC, PR” value [3, 13] was 1 patients and the “NSCLC, stable disease” value [3, 13] was 2 patients. The “Melanoma, complete response (CR)” value [3, 14] was 1 patients, the “Melanoma, partial responses (PR)” value [3, 14] was 4 patients and the “Melanoma patients who responded” value ([3]; HBI-8000 + nivolumab, 5 melanoma patients, RECIST v.1.1) was 5 patients. The “RCC, PR” value [3, 15] was 2 patients, the “RCC, progressive disease” value [3, 15] was 4 patients and the “RCC, stable disease” value [3, 15] was 1 patients. The “earliest objective response, time of treatment” value ([3]; HBI-8000 + nivolumab, first scheduled tumor assessment, end of Cycle 2) was 8 weeks and the “longest time to response after treatment initiation” value ([3]; one patient, nivolumab and HBI-8000 ceased after 16 months) was 32 months.
